Source: ChEMBL document CHEMBL1201862, “PubChem BioAssay data set” (2004)
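Growth conditions: 96-well plates. Treatment: test compound, 48 hours, 5 concentrations. Analysis: linear interpolation between bracketing concentrations; unreached endpoints set to highest concentration. The concentration for 50% growth inhibition is given as GI50.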 Active and inactive are the calls of the source. Rule as the data show it: active = GI50 up to about 1.1 µM and inactive = higher.

Assays:
Assay in all cases: NCI tumour cell line growth inhibition, 48 h
[1] = test system: OVCAR-3
[2] = test system: SN12C
[3] = test system: UACC-257
[4] = test system: M14
[5] = test system: CAKI-1
[6] = test system: MCF7
[7] = test system: T47D
[8] = test system: U-251
[9] = test system: CCRF-CEM
[10] = test system: OVCAR-5
[11] = test system: SR
[12] = test system: MDA-N
[13] = test system: DU-145
[14] = test system: RXF 393
[15] = test system: COLO 205
[16] = test system: NCI-H522
[17] = test system: BT-549
[18] = test system: SK-MEL-5
[19] = test system: SF-295
[20] = test system: K562
[21] = test system: HCT-116
[22] = test system: Malme-3M
[23] = test system: TK-10
[24] = test system: MOLT-4
[25] = test system: A549
[26] = test system: HCC 2998
[27] = test system: A498
[28] = test system: PC-3
[29] = test system: SK-OV-3
[30] = test system: MDA-MB-231
[31] = test system: UACC-62
[32] = test system: MDA-MB-435
[33] = test system: NCI-H23
[34] = test system: HOP-62
[35] = test system: IGROV-1
[36] = test system: SF-539
[37] = test system: UO-31
[38] = test system: RPMI-8226
[39] = test system: 786-0
[40] = test system: EKVX
[41] = test system: SK-MEL-2
[42] = test system: OVCAR-8
[43] = test system: NCI-H226
[44] = test system: SW-620
[45] = test system: SK-MEL-28
[46] = test system: HL-60
[47] = test system: HT-29
[48] = test system: KM12
[49] = test system: ACHN
[50] = test system: OVCAR-4
[51] = test system: SNB-19
[52] = test system: HOP-92
[53] = test system: LOX IMVI
[54] = test system: NCI-H460
[55] = test system: HCT-15
[56] = test system: NCI/ADR-RES
[57] = test system: SNB-75
[58] = test system: Hs-578T
[59] = test system: SF-268

In the case of `COc1c(-c2ccccc2)oc2c(CP(=O)(OC)OC)cccc2c1=O`, the GI50 [1] is reported as > 100 µM (inactive), the GI50 [2] is reported as > 100 µM (inactive) and the GI50 [3] is reported as > 100 µM (inactive). For the same molecule, the GI50 [4] was > 100 µM (inactive), the GI50 [5] was 2.12 µM (inactive) and the GI50 [6] was > 100 µM (inactive). For the same molecule, the GI50 [7] was > 100 µM (inactive), the GI50 [8] was > 100 µM (inactive) and the GI50 [9] was 94.4 µM (inactive). The GI50 [10] was > 100 µM (inactive), the GI50 [11] was > 100 µM (inactive) and the GI50 [12] was > 100 µM (inactive). The GI50 [13] was > 100 µM (inactive), the GI50 [14] was > 100 µM (inactive) and the GI50 [15] was > 100 µM (inactive). For the same molecule, the GI50 [16] was > 100 µM (inactive), the GI50 [17] was 41.1 µM (inactive) and the GI50 [18] was > 100 µM (inactive). For the same molecule, the GI50 [19] was > 100 µM (inactive), the GI50 [20] was > 100 µM (inactive) and the GI50 [21] was > 100 µM (inactive). The GI50 [22] was > 100 µM (inactive), the GI50 [23] was > 100 µM (inactive) and the GI50 [24] was > 100 µM (inactive). For the same molecule, the GI50 [25] was > 100 µM (inactive), the GI50 [26] was > 100 µM (inactive) and the GI50 [27] was > 100 µM (inactive). For the same molecule, the GI50 [28] was > 100 µM (inactive), the GI50 [29] was > 100 µM (inactive) and the GI50 [30] was > 100 µM (inactive). The GI50 [31] was > 100 µM (inactive), the GI50 [32] was > 100 µM (inactive) and the GI50 [33] was 68.2 µM (inactive). The GI50 [34] was > 100 µM (inactive), the GI50 [35] was > 100 µM (inactive) and the GI50 [36] was > 100 µM (inactive). The GI50 [37] was 11.7 µM (inactive), the GI50 [38] was 14.6 µM (inactive) and the GI50 [39] was > 100 µM (inactive). The GI50 [40] was > 100 µM (inactive) and the GI50 [41] was > 100 µM (inactive).
With `COCCOC(=O)NCn1cc(-c2ccccc2)nn1` the GI50 [42] was > 100 µM (inactive), the GI50 [2] was > 100 µM (inactive) and the GI50 [43] was 13.8 µM (inactive). The GI50 [44] was > 100 µM (inactive), the GI50 [45] was > 100 µM (inactive) and the GI50 [3] was > 100 µM (inactive). For the same molecule, the GI50 [4] was > 100 µM (inactive), the GI50 [5] was > 100 µM (inactive) and the GI50 [6] was > 100 µM (inactive). For the same molecule, the GI50 [46] was > 100 µM (inactive), the GI50 [8] was > 100 µM (inactive) and the GI50 [9] was > 100 µM (inactive). For the same molecule, the GI50 [47] was > 100 µM (inactive), the GI50 [10] was > 100 µM (inactive) and the GI50 [11] was > 100 µM (inactive). The GI50 [48] was > 100 µM (inactive), the GI50 [13] was > 100 µM (inactive) and the GI50 [15] was > 100 µM (inactive). For the same molecule, the GI50 [49] was > 100 µM (inactive), the GI50 [16] was > 100 µM (inactive) and the GI50 [50] was > 100 µM (inactive). The GI50 [17] was > 100 µM (inactive), the GI50 [18] was > 100 µM (inactive) and the GI50 [19] was > 100 µM (inactive). The GI50 [51] was > 100 µM (inactive), the GI50 [20] was > 100 µM (inactive) and the GI50 [21] was > 100 µM (inactive). For the same molecule, the GI50 [22] was > 100 µM (inactive), the GI50 [23] was > 100 µM (inactive) and the GI50 [24] was > 100 µM (inactive). The GI50 [25] was > 100 µM (inactive), the GI50 [26] was > 100 µM (inactive) and the GI50 [28] was > 100 µM (inactive). For the same molecule, the GI50 [52] was > 100 µM (inactive), the GI50 [30] was > 100 µM (inactive) and the GI50 [32] was > 100 µM (inactive). The GI50 [33] was > 100 µM (inactive), the GI50 [34] was > 100 µM (inactive) and the GI50 [35] was > 100 µM (inactive). For the same molecule, the GI50 [36] was > 100 µM (inactive), the GI50 [53] was > 100 µM (inactive) and the GI50 [38] was > 100 µM (inactive). For the same molecule, the GI50 [54] was > 100 µM (inactive), the GI50 [39] was > 100 µM (inactive) and the GI50 [40] was > 100 µM (inactive). For the same molecule, the GI50 [41] was > 100 µM (inactive), the GI50 [55] was > 100 µM and the GI50 [56] was > 100 µM (inactive).
In the case of `O=C1/C(=C/c2cccc(F)c2)CCCc2ccccc21`, the GI50 [1] is reported as 15.3 µM (inactive), the GI50 [42] is reported as 15.8 µM (inactive) and the GI50 [2] is reported as 17.9 µM (inactive). For the same molecule, the GI50 [43] was 14.6 µM (inactive), the GI50 [44] was 16.9 µM (inactive) and the GI50 [45] was 16.6 µM (inactive). For the same molecule, the GI50 [3] was 16.9 µM (inactive), the GI50 [4] was 13.9 µM (inactive) and the GI50 [5] was 17.7 µM (inactive). For the same molecule, the GI50 [6] was 14.6 µM (inactive), the GI50 [46] was 21.5 µM (inactive) and the GI50 [8] was 16.2 µM (inactive). For the same molecule, the GI50 [9] was 15.5 µM (inactive), the GI50 [47] was 13.2 µM (inactive) and the GI50 [10] was 15.1 µM (inactive). The GI50 [11] was 14.7 µM (inactive), the GI50 [48] was 12.1 µM (inactive) and the GI50 [13] was 16.9 µM (inactive). The GI50 [15] was 20.3 µM (inactive), the GI50 [49] was 19.1 µM (inactive) and the GI50 [16] was 12.9 µM (inactive). The GI50 [50] was 16.7 µM (inactive), the GI50 [17] was 17.6 µM (inactive) and the GI50 [19] was 16.1 µM (inactive). The GI50 [51] was 16 µM (inactive), the GI50 [20] was 15.1 µM (inactive) and the GI50 [57] was 17.3 µM (inactive). The GI50 [21] was 15.6 µM (inactive), the GI50 [22] was 11.6 µM (inactive) and the GI50 [23] was 15.7 µM (inactive). For the same molecule, the GI50 [24] was 17.7 µM (inactive), the GI50 [25] was 17.7 µM (inactive) and the GI50 [26] was 14.7 µM (inactive). For the same molecule, the GI50 [28] was 15.7 µM (inactive), the GI50 [52] was 15.8 µM (inactive) and the GI50 [58] was 13.2 µM (inactive). The GI50 [29] was 27.2 µM (inactive), the GI50 [30] was 18.3 µM (inactive) and the GI50 [31] was 15.3 µM (inactive). The GI50 [32] was 16.2 µM (inactive), the GI50 [33] was 20.4 µM (inactive) and the GI50 [34] was 14.3 µM (inactive). The GI50 [35] was 12.2 µM (inactive), the GI50 [59] was 12.9 µM (inactive) and the GI50 [36] was 17.4 µM (inactive). For the same molecule, the GI50 [53] was 16.5 µM (inactive), the GI50 [37] was 16.3 µM (inactive) and the GI50 [38] was 14.9 µM (inactive). For the same molecule, the GI50 [54] was 17.4 µM (inactive), the GI50 [39] was 17.2 µM (inactive) and the GI50 [40] was 15 µM (inactive). For the same molecule, the GI50 [41] was 16.2 µM (inactive), the GI50 [55] was 15.9 µM and the GI50 [56] was 16.5 µM (inactive).
